In one assay the test system is MRSA strain COL. The assay is described as follows: Checkerboard studies with imipenem. In kind it is cell-based, Staphylococcus aureus. The following applies: combined with Imipenem, FIG. 1. Here is the method:
FIG. 1: An SpsB inhibitor and Imipenem synergize to inhibit bacterial growth in vitro. The MIC of SpsB inhibitor on the MRSA strain COL was assessed by varying the concentration of the compound (0.016-16 μg/ml) in the absence and presence of various concentrations of Imipenem (0.5-32 μg/ml) and FIC values were generated for both compounds.
The checkerboard method is the technique most frequently used to assess antimicrobial combinations in vitro. See Antibiotics in Laboratory Medicine, Victor Lorian ed., 2005). The checkerboard comprises a two-dimensional dilution scheme: columns in which each well contains the same amount of Drug A being two-fold diluted along the x-axis, and rows in which each well contains the same amount of Drug B being two-fold diluted on the Y-axis. The result is that each well contains a unique combination of the two drugs being tested. Also tested is the antimicrobial activity of each agent singly.
Imipenem was two-fold serially diluted along the Y-axis of 96-well U-bottom microtiter dishes (Fisher Scientific) in microbiological growth media (either brain heart infusion broth or cation-adjusted Mueller-Hinton broth +2% NaCl). […]
In this representation, data are expressed as fractional inhibitory concentrations (FIC), defined as the ratio between the MIC of one compound in the presence of the other, over its MIC alone. […]

Assay [1] relates to Staphylococcus aureus (strain B, MRSA COL). The assay is described as follows: Deep thigh MRSA infection mouse model. In kind it is in vivo, mice BALB/c. Here is the method:
(§1) Female mice BALB/c mice (20-25 g) were rendered neutropenic via intraperitoneal injection of cyclophosphamide (Mead Johnson Pharmaceuticals) on Day −4 (250 mg/kg, disseminated) or Days −4/−1 (150/100 mg/kg, deep thigh) prior to experimental infection. Neutropenic mice were infected on Day 0 via intraperitoneal (disseminated) or intramuscular (deep thigh) injection of 0.1 ml containing ˜1-5×10^4 CFU Staphylococcus aureus (strain B, MRSA COL). Linezolid (Zyvox IV solution, Bell Medical) was employed as an assay control. Fifteen minutes post infection, increasing doses of Example 3 (20, 40 and 80 mg/kg) or vehicle were administered subcutaneously (SC) TID with or without Imipenem/Cilastatin (6/50 mg/kg SC TID, disseminated; 10/50 mg/kg SC TID, deep thigh). Twenty four hours post dosing, mice were euthanized and infected kidneys (disseminated) or thighs (deep thigh) were aseptically removed, placed in 4 ml sterile phosphate buffered saline (Fisher Scientific), and homogenized using a Polytron (Brinkmann Instruments). Homogenates were serially 100-fold diluted in 9.9 ml sterile saline and plated on Mannitol Salt Agar plates. Plates were incubated at 35° C. for 48 hours and colony forming units (CFU) of bacteria remaining per thigh were determined.

The test system is the same in assay [2]. The assay is described as follows: Disseminated MRSA infection mouse model. Type of assay: in vivo, mice BALB/c. On the procedure: as §1
The next assay has as its target T1, SpsB (Staphylococcus aureus, UniProt P0A070).
T1 construct: using a bacterial membrane fraction as a source of SpsB; from tissue
T1 sequence (P0A070 1-191): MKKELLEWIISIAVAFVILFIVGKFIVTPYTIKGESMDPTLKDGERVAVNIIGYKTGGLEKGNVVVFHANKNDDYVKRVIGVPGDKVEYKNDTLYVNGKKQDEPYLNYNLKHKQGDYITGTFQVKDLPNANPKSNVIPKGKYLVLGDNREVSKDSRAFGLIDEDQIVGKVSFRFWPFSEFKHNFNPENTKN
The assay is described as follows: Inhibition of SpsB enzyme activity (fluorescence-based assay, bacterial membrane fraction). In kind it is biochemical. The gist of the method: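 Membrane fraction from bacteria supplied SpsB (0.6 mg/mL final protein), added last to start reactions with 20 μM lipopeptide substrate decanoyl-K(DABCYL)-TPTAKA↓ASKKD-D(EDANS)-NH2 (Km≈5 μM). Cleavage was followed as rising fluorescence, excitation 340/emission 460 nm.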

Assay [3] concerns MB 5393 (COL), a methicillin-resistant S. aureus strain. The assay can be described thus: Determination of minimum and synergistic inhibitory concentration. Type of assay: cell-based. The settings on record: MRSA COL, 22 hours. A digest of the protocol: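 Broth microdilution: two-fold compound dilutions (final 64 to 0.0313 μg/mL) tested with and without subinhibitory imipenem (4 μg/mL) against MRSA COL at ~5×10^5 CFU/mL, 37°C, 22-24 hr stationary. MIC is lowest concentration preventing visible growth without imipenem; SIC same with imipenem.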

From patent US20130244929A1 (priority 2010, published 2013) come the findings set out here.

Bounds are passed on as bounds.

As for `CCCc1ccc(-c2ccc(C(=O)NCCC(=O)N[C@@H](CCCCN)C(=O)N(C)[C@@H]3C(=O)N[C@@H](C)C(=O)N[C@H](C(=O)O)Cc4ccc(O)c(c4)-c4cc3ccc4O)cc2)cc1.O=C(O)C(F)(F)F` [EXAMPLE 3, (5S)-6-[[(7S,10S,13S)-13-carboxy-3,18-dihydroxy-10-methyl-8,11-dioxo-9,12-diazatricyclo[13.3.1.1^2,6]icosa-1(19),2(20),3,5,15,17-hexaen-7-yl](methyl)amino]-6-oxo-5-[(3-{[(4′-propylbiphenyl-4-yl)carbonyl]amino}propanoyl)amino]hexan-1-aminium trifluoroacetate], in the assay with MRSA strain COL, the “synergy in isobologram (FIC) of bacterial growth” value was “synergistic effect”. The “effect on MRSA COL bacterial burden” value is “negligible anti-bacterial effects” in assay [1] (Example 3 alone, 20, 40 and 80 mg/kg SC TID, thighs, relative to vehicle, FIG. 2B); “negligible anti-bacterial effects” in assay [2] (Example 3 alone, 20, 40 and 80 mg/kg SC TID, kidneys, relative to vehicle, FIG. 2A). The “reduction in bacterial burden” value was 2-3 log in assay [1] (co-administered with Imipenem/Cilastatin 10/50 mg/kg SC TID, deep thigh) and 2-3 log in assay [2] (co-administered with Imipenem/Cilastatin 6/50 mg/kg SC TID, disseminated). Moreover, the IC50 on SpsB is less than 10 nM. Further, the SIC entry in assay [3] (presence of imipenem (4 μg/mL)) is “H (H: SIC 0.062-1)”. In addition, the MIC in assay [3] (Staphylococcus aureus, absence of imipenem, read-out: MIC) was less than 1 µg/mL.
